{"source": "patent US20080019916A1", "about": "“Methods and pharmaceuticals for treating muscle insulin resistance and related conditions” (University of Tasmania, priority 2001, published 2008)", "key": {"[1]": {"test_system": "skeletal muscle of the rat hindlimb", "details": "physiologic doses of insulin (3 mU/min/kg clamp); cited from earlier work"}, "[2]": {"test_system": "skeletal muscle of the rat hindlimb", "test": "contrast enhanced ultrasound/microbubbles (CEU) measurement of capillary blood volume in rat hindlimb muscle", "format": "in vivo", "from_the_text": "A second method was devised using the latest technologies in ultrasound. The ultrasound method relies on the increased echogenicity of albumin microbubbles which are continuously infused intravenously during data acquisition. The acoustic signal that is generated from the microbubbles when exposed to ultrasound produces tissue opacification which is proportional to the number of microbubbles within the ultrasound beam. Using harmonic pulsing methods essentially all microbubbles within the ultrasound beam are destroyed in response to a single pulse of high-energy ultrasound and an image is obtained. In the time interval between subsequent pulsing episodes, microbubbles flowing into the tissue are replenished within the beam and affect the intensity of the signal from the next high energy pulse. Repeating this process with pulse delays between 50 msec and 20 sec, the beam will be fully replenished and further increases in the time between each pulsing interval will not produce a change to tissue opacification. The rate of microbubble reappearance within the ultrasound beam provides an indication of capillary velocity and the degree of tissue opacification provides a measurement of capillary blood volume (CBV). Images are background-subtracted from images from a pulsing interval of 1000 ms which represents the replenishment of arteries and arterioles thus providing a measurement of capillary flow. The plateau tissue opacification (measured as videointensity) is the determination of capillary blood volume. Using this approach, changes in capillary blood volume in response to insulin and exercise have recently been assessed in the skeletal muscle of the rat hindlimb in vivo and compared to data obtained using 1-MX metabolism (ref 16; FIG. 1). FIG. 1. Comparison of the effect of saline, insulin (3 mU/min/kg, euglycemic clamp×120 min) or muscle contraction (2 Hz, 1 ms duration, monophasic square waves×10 min) on capillary blood volume as measured by microbubble videointensity using contrast enhanced ultrasound (FIG. 1a) or the hindlimb extraction of 1-MX (FIG. 1b) measured under identical conditions. […] Exercise is regarded by most physiologists as a “bench-mark” stimulus for capillary recruitment. […] A particular advantage of the ultrasound method is that it is relatively non-invasive and is suitable for human use (17). This opens up possibilities for its use in diagnosis in terms of impaired capillary recruitment in response to insulin and the monitoring of outcomes from therapeutic interventions that might act by increasing capillary recruitment. The ultrasound method relies on the increased echogenicity of albumin microbubbles that are continuously infused intravenously during data acquisition. […]"}, "[3]": {"test_system": "anaesthetised rats", "test": "hyperinsulinaemic euglycaemic clamp in anaesthetised rats with 1-MX metabolism, glucose uptake and haemodynamic monitoring", "format": "in vivo, rat", "from_the_text": "From present knowledge there would appear to be at least three possible mechanisms to account for insulin-mediated capillary recruitment in skeletal muscle. Firstly and most likely, insulin may act at insulin receptors on endothelial cells and an IRS-1/2, PI3-K pathway to activate eNOS to produce NO, which in turn permeates adjacent vascular smooth muscle cells to activate soluble guanylyl cyclase and lower the vascular tone of pre-capillary sphincters. In favour of this mechanism is the fact that this process is NO-dependent and is thus consistent with our preliminary data (FIG. 4). There is compelling evidence that insulin acts directly through insulin receptors on endothelial cells to control nutritive capillary flow in skin. Secondly, insulin may act at insulin receptors on the vascular smooth muscle cells (22) via IRS-1/2, PI3-K, NOS, cGMP, MBP (myosin bound phosphatase) sequence to cause vasorelaxation. This mechanism would be NO-dependent, free of endothelial cell involvement in signalling and attractive as TNFα is known to inhibit insulin signalling in vascular smooth muscle cells, although to date this has been restricted to the ERK1/2 activation step (23). This mechanism would also lead ultimately to the activation of guanylyl cyclase and the production of cyclic GMP. Thirdly, insulin may act at insulin receptors on skeletal muscle to activate glucose transport and metabolism by the IRS-1/2, PI3-K, GLUT4 pathway to produce a metabolite (e.g. adenosine) that permeates adjacent tissue to react with appropriate receptors on endothelial/vascular smooth muscle cells to result in vasorelaxation. […] FIG. 4. The effect of L-NAME on insulin mediated increases in hindleg glucose uptake (FIG. 4a) and 1-MX metabolism (FIG. 4b) was examined. Euglycemic clamp conditions (10 mU/min/kg) were conducted for 2 h. […] This latter mechanism would resemble that occurring in exercise where vasodilatory metabolite(s) are released locally by working muscle to facilitate local blood flow and would be inhibited by agents (e.g. glucosamine) that inhibit muscle glucose metabolism. All three mechanisms should be wortmannin sensitive as PI3-K is expected to be involved. A variant of this third mechanism is where a form of NOS is activated in skeletal muscle independently of glucose metabolism. NO could then permeate neighbouring tissue as above. The terminal half of this fourth possible mechanism should be simulated by AMPK activation with AICAR addition (24). Overall, given that the mechanism of capillary recruitment by insulin in rat muscle is NO-dependent (FIG. 4) and that NO acts by producing cyclic GMP, agents that might enhance capillary recruitment by insulin should be targeted to enhance insulin's production of NO or cyclic GMP. In principle, 1-methylxanthine (1-MX) is an exogenous substrate for an enzyme located predominantly in the nutritive capillary endothelial cells (much less so in the non-nutritive route and myocytes). Consequently, passage of blood borne 1-MX through the nutritive vascular route leads to its conversion to the product 1-methylurate (1-MU). Chromatographic analysis of arterial and venous samples for 1-MX and 1-MU together with the total blood flow rate over the muscle bed allows the calculation of 1-MX metabolism. A number of our studies using the perfused rat hindlimb have shown tight correlation between nutritive flow (or the proportion of nutritive/non-nutritive flow) and 1-MX metabolism (12,13). Assay of new drugs acting to increase capillary recruitment in the presence of endogenous or exogenous insulin. This is done in an optional two tier manner, firstly in anaesthetized rats using the hyperinsulinaemic euglycaemic clamp (14) and secondly, in human forearm using a localized hyperinsulinaemic euglycaemic clamp (17). The initial testing in rats is optional, but allows rapid identification of those agents likely to be effective in humans. […]"}, "[4]": {"details": "insulin 3 mU/min/kg, anesthetized rat, before vs after, FIG. 7c"}, "[5]": {"details": "infused with sub-maximal physiologic dose of insulin, vs insulin alone, FIG. 5b"}}, "data": [{"compound": "insulin: hormone infused in euglycemic clamp", "values": [{"measurement": "increase in capillary blood volume", "setting": "[1]", "result": "2-3 fold"}, {"measurement": "capillary blood volume (microbubble videointensity, CEU)", "setting": "[2]; euglycemic insulin clamp 3 mU/min/kg, 120 min, vs baseline/saline, FIG. 1a", "result": "marked increases"}, {"measurement": "plateau videointensity (A), microvascular volume", "setting": "[2]; [4]", "result": "clearly higher"}, {"measurement": "rate of microvascular filling (β)", "setting": "[2]; [4]", "result": "no change"}]}, {"compound": "NC(=O)c1ncn([C@@H]2O[C@H](CO)[C@@H](O)[C@H]2O)c1N", "note": "[AICAR, 5-aminoimidazole-4-carboxamide-1-β-D-ribofuranoside]", "values": [{"measurement": "insulin-mediated hindleg glucose uptake", "setting": "[3]; infused with insulin, vs insulin alone, P<0.05, FIG. 6b", "result": "markedly enhanced"}, {"measurement": "capillary recruitment as indicated by CEU (capillary blood volume)", "setting": "[2]; infused alone, without insulin, FIG. 6a", "result": "recruited capillary flow on its own"}]}, {"compound": "COC(=O)[C@@H](N)CCCNC(=N)N[N+](=O)[O-]", "note": "[L-NAME]", "values": [{"measurement": "insulin-mediated increase in femoral blood flow (FBF)", "setting": "[3]; euglycemic clamp 10 mU/min/kg, 2 h, n=5", "result": "blocked the increase in FBF"}, {"measurement": "mean arterial blood pressure", "setting": "[3]; euglycemic clamp 10 mU/min/kg, 2 h, n=5, raised from 100±4", "result": "125±5", "unit": "mmHg"}]}, {"compound": "TNFα", "values": [{"measurement": "effect on insulin-mediated capillary recruitment", "setting": "[3]; rats treated with the cytokine in vivo", "result": "completely block"}]}, {"compound": "CCCOc1ccccc1-c1nc(=O)c2[nH]nnc2[nH]1", "note": "[Zaprinast, 1,4-dihydro-5-(2-propoxyphenyl)-7H-1,2,3-triazolo(4,5-d)pyrimidin-7-one]", "values": [{"measurement": "insulin-mediated capillary recruitment (hindleg 1-MX metabolism)", "setting": "[3]; infused with sub-maximal physiologic dose of insulin, vs insulin alone, FIG. 5a", "result": "significantly (P<0.05) enhanced"}, {"measurement": "insulin-mediated glucose appearance (Ra)", "setting": "[3]; [5]", "result": "significantly (P<0.05) enhanced"}, {"measurement": "insulin-mediated glucose disposal (Rd)", "setting": "[3]; [5]", "result": "significantly (P<0.05) enhanced"}]}]}
